Laboratory results taken from patent publication US6544994B2, “Pharmaceutical preparation for treating or preventing cardiovascular or neurological disorders by modulating of the activity of nitric oxide synthase” (Eprov AG, priority 2000, dated 2003).
Where two headings read alike, the source gives them in different places.

Tests used:
[1] = target: T1, eNOS (Bos taurus, UniProt P29473); assay: NO-production by eNOS, [3H]arginine to [3H]citrulline conversion; assay type: biochemical, bovine; parameters: made in house; host or cells: E. coli; conditions: 100 μM final
Experimental: 5-methyl-(6 S)-tetrahydrofolic acid, and its stereoisomer, 5-methyl-(6R)-tetrahydrofolic acid were used in purities>99.8%. The spin trap, 5-diethoxy-phosphoryl-5-methyl-1-pyrroline-N-oxide (DEPMPO) and all other used chemicals are commercially available.
NOS activity was determined by quantifying the conversion of L-[2,3,4.5-^3H]arginine into L-[2,3,4,5-^3H]-citrulline. […] All measurements were performed in triplicate. After correction for nonspecific activity, eNOS activity was calculated from the percent conversion of [^3H]-arginine into [^3H]-citrulline and expressed as nmoles per mg protein per min.

[2] = Competitive superoxide trapping (CST) with DEPMPO in HX/XO system, EPR; assay type: biochemical; conditions: for k/kd, reaction rate with superoxide relative to reference spin trap DEPMPO / k, reaction rate with superoxide: pH 7.4, 37° C.; for k, reaction rate with superoxide: based on kd=80 (Ms)^−1; for superoxide scavenging, times less potent/slower than ascorbic acid: relative to ascorbic acid
Experimental: The EPR spectra were recorded at 37° C. on a modified Bruker ESP 300. Spin trap experiments were performed with both HX/XO and eNOS. For HX/XO the solution contained 0.5 mM hypoxanthine, 12.5 mU/ml xanthine oxidase and 50 mM DEPMPO in phosphate buffer (pH 7.4). The eNOS assay contained 250 nM eNOS dimers (0.065 mg protein/ml), 0.5 mM NADPH, 10 μM L-arginine, 1 mM CaCl2, 300 U/ml catmodulin and 50 mM DEPMPO in phosphate buffer (pH 7.4).
The reaction rates with superoxide are given by k for the tested substance and kd for the reference compound DEPMPO respectively.

[3] = target: T1, eNOS; assay: Superoxide production by eNOS, DEPMPO spin trap EPR
[4] = system: microvascular endothelial bEND3 cells; assay: NO production by endothelial cells, nitrite content in supernatant; assay type: cell-based; conditions: preincubation 24 hours; for acetylcholine-induced nitrite production: 5-methyltetrahydrofolic acid 1 and 10 μM, sepiapterin 100 μM, p<0.05 vs. saline
Experimental: The NO production by endothelial cells was assessed by quantification of the nitrite content in the supernatant with a commercially available fluorimetric kit (Cayman Chemicals). Acetylcholine-induced NO production is presented as the difference between stimulated minus the unstimulated nitrite content.

[5] = cited from earlier work
[6] = cited from earlier work; remark: listed apart in the source
[7] = target: xanthine oxidase (XO) (Homo sapiens, UniProt P47989)
Description: Assessment of urate levels (assessed with a uricase-hydrogen peroxide assay) is a standard method to determine enzymatic activity of XO. However, reductive substance, like vitamin C or NUHF, are known to interfere with the urate determination.

[8] = pterin-repleted eNOS, p<0.05 vs. BH4 alone

Chain of xanthine oxidase (XO) (P47989 whole entry, species assumed): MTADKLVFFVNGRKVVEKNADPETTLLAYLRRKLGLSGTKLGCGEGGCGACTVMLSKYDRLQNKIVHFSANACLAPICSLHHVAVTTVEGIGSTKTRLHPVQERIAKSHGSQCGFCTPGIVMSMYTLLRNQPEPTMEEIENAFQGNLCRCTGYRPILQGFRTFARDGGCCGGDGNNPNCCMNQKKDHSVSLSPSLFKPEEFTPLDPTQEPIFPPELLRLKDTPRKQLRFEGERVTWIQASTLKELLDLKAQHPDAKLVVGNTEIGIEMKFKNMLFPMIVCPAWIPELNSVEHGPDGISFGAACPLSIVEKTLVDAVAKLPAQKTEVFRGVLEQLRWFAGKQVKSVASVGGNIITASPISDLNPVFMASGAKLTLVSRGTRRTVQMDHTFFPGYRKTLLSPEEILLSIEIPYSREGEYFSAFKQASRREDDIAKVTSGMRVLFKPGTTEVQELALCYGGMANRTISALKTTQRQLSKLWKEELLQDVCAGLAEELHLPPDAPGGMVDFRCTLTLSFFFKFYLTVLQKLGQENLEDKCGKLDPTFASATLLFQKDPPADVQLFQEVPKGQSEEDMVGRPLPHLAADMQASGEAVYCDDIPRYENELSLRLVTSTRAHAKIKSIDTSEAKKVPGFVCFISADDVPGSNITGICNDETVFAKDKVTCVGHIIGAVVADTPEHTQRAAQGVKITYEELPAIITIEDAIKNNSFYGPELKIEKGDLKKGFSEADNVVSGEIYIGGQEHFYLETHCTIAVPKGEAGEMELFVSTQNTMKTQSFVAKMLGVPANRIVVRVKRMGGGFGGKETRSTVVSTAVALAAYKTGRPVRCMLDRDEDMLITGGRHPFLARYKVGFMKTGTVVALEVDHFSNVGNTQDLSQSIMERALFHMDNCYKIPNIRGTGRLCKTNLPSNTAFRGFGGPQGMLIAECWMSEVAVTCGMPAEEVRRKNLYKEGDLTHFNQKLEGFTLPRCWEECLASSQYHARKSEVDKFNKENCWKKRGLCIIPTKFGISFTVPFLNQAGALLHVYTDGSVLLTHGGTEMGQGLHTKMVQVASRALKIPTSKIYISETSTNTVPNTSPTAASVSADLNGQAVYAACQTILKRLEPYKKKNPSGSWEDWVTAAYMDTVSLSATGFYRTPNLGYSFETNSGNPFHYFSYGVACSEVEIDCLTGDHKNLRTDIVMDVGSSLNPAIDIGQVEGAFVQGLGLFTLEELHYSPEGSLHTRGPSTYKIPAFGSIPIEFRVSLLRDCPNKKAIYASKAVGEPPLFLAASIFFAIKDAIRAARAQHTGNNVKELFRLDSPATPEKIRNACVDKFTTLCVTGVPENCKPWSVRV

CN1c2c(nc(N)[nH]c2=O)NC[C@H]1CNc1ccc(C(=O)N[C@@H](CCC(=O)O)C(=O)O)cc1 [5-methyl-(6R)-tetrahydrofolic acid]
NO production ([1]; pterin-free eNOS): no significant effect on NO production
NO production [1, 8]: significant increase in NO production
k/kd, reaction rate with superoxide relative to reference spin trap DEPMPO ([2]; HX/XO): about 175
k/kd, reaction rate with superoxide relative to reference spin trap DEPMPO ([2]; HX/XO, listed as D-MTHF): 150
k, reaction rate with superoxide [2]: 12000 M/s
superoxide scavenging, times less potent/slower than ascorbic acid [2]: about 20 fold
effect on rate of superoxide production by pterin-free eNOS ([3]; pterin-free eNOS): does not affect the rate of superoxide production
rate of DEPMPO adduct formation ([3]; pterin-repleted eNOS): very strong reduction in the rate of DEPMPO adduct formation

C[C@H](O)C(=O)C1=Nc2c(nc(N)[nH]c2=O)NC1 [sepiapterin, reference compound]
acetylcholine-induced nitrite production [4]: significant-further increase in acetylcholine-induced nitrite production

N=C(N)NCCC[C@H](N)C(=O)O [arginine, L-arginine]
k/kd, reaction rate with superoxide relative to reference spin trap DEPMPO ([2]; HX/XO): < 10^−2
effect on formation of DEPMPO adducts ([2]; HX/XO, up to 100 mM): did not affect the formation of DEPMPO adducts
k, reaction rate with superoxide [2]: neglibile

Nc1nc2ncc(CNc3ccc(C(=O)N[C@@H](CCC(=O)O)C(=O)O)cc3)nc2c(=O)[nH]1 [folic acid, reference compound]
systemic plasma concentrations of 5-methyltetrahydrofolic acid ([5]; standard oral suppletion of folic acid 5 mg p.o.): ≤ 150 nM

O=C1O[C@H]([C@@H](O)CO)C(O)=C1O [ascorbic acid, reference compound]
k, reaction rate with superoxide, literature value [6]: 270000 M/s
k/kd, reaction rate with superoxide relative to reference spin trap DEPMPO ([2]; HX/XO): 4400
k, reaction rate with superoxide [2]: 350000 M/s

CN1c2c(nc(N)[nH]c2=O)NCC1CNc1ccc(C(=O)N[C@@H](CCC(=O)O)C(=O)O)cc1 (stereo partly shown) [5-methyltetrahydrofolic acid, 5-methyl-5,6,7,8-tetrahydrofolic acid]
nitrite release ([4]; unstimulated endothelial cells): did not affect nitrite release
systemic plasma concentrations of 5-methyltetrahydrofolic acid ([5]; intra-arterial infusion): 250 nM
superoxide scavenging, times less potent/slower than ascorbic acid [2]: about 20 fold
effect on rate of urate production by XO [7]: does not affect the rate of urate production
amount of superoxide adducts ([3]; partially BH4-repleted eNOS, 25 μM): substantial reduction in the amount of superoxide adducts
factor by which superoxide production by eNOS is reduced ([3]; pterin-repleted eNOS, 50 μM, estimated from figure): 2 fold

CN1c2c(nc(N)[nH]c2=O)NC[C@@H]1CNc1ccc(C(=O)N[C@@H](CCC(=O)O)C(=O)O)cc1 [5-methyl-(6 S)-tetrahydrofolic acid]
acetylcholine-induced nitrite production [4]: significant-further increase in acetylcholine-induced nitrite production
NO production ([1]; pterin-free eNOS): no significant effect on NO production
NO production [1, 8]: significant increase in NO production
k/kd, reaction rate with superoxide relative to reference spin trap DEPMPO ([2]; HX/XO): about 175
k/kd, reaction rate with superoxide relative to reference spin trap DEPMPO ([2]; HX/XO, listed as L-MTHF): 150
k, reaction rate with superoxide [2]: 12000 M/s
superoxide scavenging, times less potent/slower than ascorbic acid [2]: about 20 fold
urate level after 60 minutes of incubation ([7]; 50 μM added at the beginning of the incubation, basal 128±20 μM): 48.7 ± 1.7 µM
urate level after 60 minutes of incubation ([7]; 50 μM added at the end of the incubation, just prior to urate assessment): 49.9 ± 1.9 µM
effect on rate of superoxide production by pterin-free eNOS ([3]; pterin-free eNOS): does not affect the rate of superoxide production
radical adduct formation ([3]; pterin-free eNOS, 25 μM): does not cause significant changes in radical adduct formation
rate of DEPMPO adduct formation ([3]; pterin-repleted eNOS): very strong reduction in the rate of DEPMPO adduct formation
